Results on 2 compounds are retold here after publication PMC3723855, “R31C GNRH1 Mutation and Congenital Hypogonadotropic Hypogonadism” (PLoS ONE, 2013).

Assay [1] has as its target T1, human GnRH-R (Homo sapiens, UniProt P30968).
T1 sequence (P30968 1-328): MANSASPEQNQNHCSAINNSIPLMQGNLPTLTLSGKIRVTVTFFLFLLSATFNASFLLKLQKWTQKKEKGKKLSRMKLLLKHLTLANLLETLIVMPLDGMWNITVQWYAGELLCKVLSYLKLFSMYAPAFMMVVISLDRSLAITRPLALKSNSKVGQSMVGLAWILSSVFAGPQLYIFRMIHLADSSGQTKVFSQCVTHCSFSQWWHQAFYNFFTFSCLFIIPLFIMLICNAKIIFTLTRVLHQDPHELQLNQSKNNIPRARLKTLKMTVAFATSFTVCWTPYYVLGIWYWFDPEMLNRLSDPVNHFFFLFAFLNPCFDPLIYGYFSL
The assay can be described thus: Inositol phosphate (IP) accumulation in COS-7 cells transfected with human GnRH-R. The format is cell-based. More on the design: host or cells: COS-7. On the procedure:
Figure 6 IP accumulation. (A) COS-7 cells were transiently transfected with human GnRH-R expression vector and washed before the addition of myo-[2-^3H]Inositol. […] This experience was conducted three times each in triplicate. (B) Representation of individual values of EC-50 (calculated with Arcsin “P” root transformation) from n = 3 dose-response experiments.
COS-7 cells were transiently transfected by electroporation with human GnRH-R DNA (10 µg/15 cm dish), seeded into 12-well plates and radiolabelled by overnight incubation with myo-[3H]Inositol (0.5 µCi/well, American Radiolabeled Chemicals, St Louis, Mo). […] Incubations were stopped by removal of the medium and cells were lysed by addition of formic acid (1 ml, 10 mM). IP were extracted from cell lysates using Dowex 1 X8-200 chromatography and counted using a liquid scintillation counter (Pack ard). EC-50 and Emax values were calculated using Graphpad Prism (GraphPad Software Inc).

In assay [2] the target is T1, human GnRH-R. Briefly: Competition radioligand binding, 125I-[His5, D-Tyr6]-GnRH, transfected COS-7 cells. As for the experimental part: Figure 2 Binding of WT and R31C GnRH to the GnRH receptor (GnRH-R). […] Data are the means of two experiments performed in triplicate.
The high affinity GnRH analog, [His^5, D-Tyr^6]-GnRH was radio-iodinated as previously described and purified using Sephadex chromatography. COS-7 cells were transiently transfected with a human GnRH-R DNA construct containing the human GnRH-RII carboxy-terminal to enhance expression using 6 µg of DNA and 30 µl FuGene HD (Promega Corporation, Madison, WI) per 10 cm dish and seeded into 12-well plates. […] Cells were washed with phosphate-buffered saline (2×1 ml) and lysed with NaOH (1 ml, 0.1 M). Cell-bound radioactivity was counted in a gamma counter and IC-50 values were calculated using Graphpad Prism (GraphPad Software Inc, San Diego).

Assay [3] has as its system human GnRH receptor. Briefly: SRE-coupled luciferase assay in HEK293T cells co-transfected with human GnRH receptor. The class given is cell-based. The note with it: for EC50: human GnRH receptor. On the procedure: Figure 3 SRE-coupled luciferase assay. (A) HEK293T cells were exposed to graded concentrations of wild type (WT) GnRH, R31C and equimolar concentrations of WT + R31C during five hours. Luciferase activity arbitrary units by luminometry (a.u.) have been shown as ratio on beta-galactosidase activity by optical density used as transfection efficiency internal control. This experience was conducted eight times. (B) Representation of individual values of EC-50 (calculated with Arcsin “P” root transformation) from n = 8 dose-response experiments.
luc2P/SRE/Hygro plasmid (Promega, Madison, WI) was used to test luciferase production in response to MAP kinase activation as a reporter gene system. HEK293T cells (1.2×10^4 cells/well) were seeded 72 h before testing in high-glucose Dulbecco's minimal essential medium (DMEM, Invitrogen, Cergy Pontoise, France) containing 2 mM glutamine, 100 IU/mL penicillin, […] streptomycin, and 10% heat-inactivated fetal calf serum at 37°C in 96-well plates. Twenty-four hours before testing, cells were co-transfected in serum free OptiMEM, using Lipofectamine 2000 (Invitrogen, Cergy Pontoise, France) with the plasmids for human GnRH receptor, luc2P/SRE/Hygro and pMIR-REPORT™ beta-galactosidase vector (Applied Biosystems, Foster City, CA). […] After 5 h-incubation cells were harvested and assayed for luciferase activities as previously described, using a luminometer (Victor, Perkin Elmer, Waltham, MA). To standardize for transfection efficiency, the relative light units were normalized by the galactosidase activity at optical density. EC-50 and Emax values were calculated using Graphpad Prism (GraphPad Software Inc).

The subject of assay [4] is GNRHR. Briefly: SRE-coupled luciferase after pulsatile exposure (four 90 min-spaced pulses), HEK293T cells. The class given is cell-based, human. The settings on record: 5 minutes each, 10 nM WT, 10 nM R31C or 10+10 nM, harvested five hours after last pulse, three experiments, n = 8 replicates. As for the experimental part: Supplementary file pone.0069616.s002.ppt: Figure S2 Luciferase activity after pulsatile exposure. HEK293T cells were transiently transfected with GNRHR and SRE-coupled luciferase reporter gene, and then exposed to four 90 min-spaced pulses of 10 nM WT, 10 nM […] and 10+10 nM WT+[…]. After 5 minutes exposure to each ligand, cells were washed, and a subsequent pulse was given 90 minutes after. Five hours after the last pulse, cells were harvested for luciferase assay. Luciferase activity arbitrary units obtained by luminometry (a.l.u.) are shown as ratio on beta-galactosidase activity by optical density (used as transfection efficiency internal control). This experience was conducted three times (n = 8 replicates for each experiment). (PPT) Click here for additional data file.

Setting [5] is: R31C 10^−10 M to 10^−6 M in combination with WT GnRH at 10^−9 M.

“Also recorded” adds a separate entry of the source. Where two headings read alike, the source gives them in different places. A value given as a limit tells only on which side of the number the result lay.

Take `CC(C)C[C@H](NC(=O)CNC(=O)[C@H](Cc1ccc(O)cc1)NC(=O)[C@H](CO)NC(=O)[C@H](Cc1c[nH]c2ccccc12)NC(=O)[C@H](Cc1c[nH]cn1)NC(=O)[C@@H]1CCC(=O)N1)C(=O)N[C@@H](CS)C(=O)N1CCC[C@H]1C(=O)NCC(N)=O` [R31C GnRH]: in assay [1] (COS-7, R31C compared with WT), the “maximal IP / agonism” value is recorded as “full agonist; also recorded: maximal IP generated by both ligands was the same; also recorded: able to elicit the same maximal stimulation”. Also, the EC50 in assay [1] (COS-7, human GnRH-R, 1 hour, n = 3 dose-response experiments each in triplicate, Arcsin "P" root transformation, spread not defined, read-out: EC-50, IP accumulation (Fig. 6B)) turned out to be 199 ± 75.9 nM; in assay [3] (HEK293T, 5 h, n = 8 dose-response experiments, Arcsin "P" root transformation, spread not defined, p<0.0001, read-out: EC-50, SRE-luciferase (Fig. 3B)) it was 313 ± 130 nM. In addition, the “impact of added R31C GnRH on IP generation with WT GnRH” value in assay [1] (setting [5]) was “failed to have any impact”. For the same compound, in assay [1] (R31C GnRH versus WT), the “IP activity / potency” value is “very low activity”. Also, in assay [1] (R31C GnRH versus WT GnRH, p<0.01), the “less potent than WT GnRH, IP accumulation” value is listed as more than 100 fold. Besides, the IC50 in assay [2] (COS-7 transfected with human GnRH-R construct, 125I-[His5, D-Tyr6]-GnRH, 4 h, 4°C, two experiments performed in duplicate) was 850 nM. The “impact of added R31C GnRH on receptor binding with WT GnRH” value in assay [2] (setting [5]) is listed as “failed to have any impact”. Further, the “activity in receptor binding” value in assay [2] (R31C GnRH) is on record as “very low activity”. For the same compound, in assay [2] (R31C GnRH versus WT GnRH, COS-7 cells), the “affinity for GnRH-R lower than that of WT GnRH” value is listed as “more than 100 fold”. In assay [3] (HEK293T, 5 h, R31C compared with WT), the “maximal stimulation / agonism, SRE-luciferase” value is recorded as “full agonist; also recorded: able to elicit the same maximal stimulation”. Further, the “impact of added R31C GnRH on SRE-luciferase with WT GnRH” value in assay [3] (setting [5]) is given as “failed to have any impact”. Further, the “SRE-luciferase activity / potency” value in assay [3] (R31C GnRH versus WT) is listed as “very low activity”. Besides, in assay [3] (R31C versus WT, dose-response curves), the “reduction of R31C agonist versus WT, SRE-luciferase” value was approximately 100 fold.

In the case of `CC(C)C[C@H](NC(=O)CNC(=O)[C@H](Cc1ccc(O)cc1)NC(=O)[C@H](CO)NC(=O)[C@H](Cc1c[nH]c2ccccc12)NC(=O)[C@H](Cc1c[nH]cn1)NC(=O)[C@@H]1CCC(=O)N1)C(=O)N[C@@H](CCCNC(=N)N)C(=O)N1CCC[C@H]1C(=O)NCC(N)=O` [WT GnRH, reference compound], the “luciferase activity after pulsatile administration” value in assay [4] is on record as “more potent than R31C GnRH”. Moreover, in assay [3] (HEK293T, 5 h, p<0.0001 WT vs R31C, read-out: EC-50, SRE-luciferase), the EC50 amounted to 4 nM.
